Measured values from patent publication US10660877B2 (BRISTOL-MYERS SQUIBB COMPANY, priority 2016, dated 2020).

How the values were obtained:
human TLR8 = human TLR8 (Homo sapiens (Human), UniProt Q9NR97); test: TLR8 inhibition reporter assay (HEK-Blue cells, SEAP reporter, R848 stimulation); conditions: read-out: TLR8 IC50, HEK-Blue cells overexpressing human TLR8, R848 15.9 μM;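 further: compounds tested from 0.05 nM to 50 µM, 22 h at 37 °C, SEAP measured with HEK-Blue Detection, inhibition relative to agonist plus DMSO versus a known inhibitor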
Chain of human TLR8 (Q9NR97 27-1041): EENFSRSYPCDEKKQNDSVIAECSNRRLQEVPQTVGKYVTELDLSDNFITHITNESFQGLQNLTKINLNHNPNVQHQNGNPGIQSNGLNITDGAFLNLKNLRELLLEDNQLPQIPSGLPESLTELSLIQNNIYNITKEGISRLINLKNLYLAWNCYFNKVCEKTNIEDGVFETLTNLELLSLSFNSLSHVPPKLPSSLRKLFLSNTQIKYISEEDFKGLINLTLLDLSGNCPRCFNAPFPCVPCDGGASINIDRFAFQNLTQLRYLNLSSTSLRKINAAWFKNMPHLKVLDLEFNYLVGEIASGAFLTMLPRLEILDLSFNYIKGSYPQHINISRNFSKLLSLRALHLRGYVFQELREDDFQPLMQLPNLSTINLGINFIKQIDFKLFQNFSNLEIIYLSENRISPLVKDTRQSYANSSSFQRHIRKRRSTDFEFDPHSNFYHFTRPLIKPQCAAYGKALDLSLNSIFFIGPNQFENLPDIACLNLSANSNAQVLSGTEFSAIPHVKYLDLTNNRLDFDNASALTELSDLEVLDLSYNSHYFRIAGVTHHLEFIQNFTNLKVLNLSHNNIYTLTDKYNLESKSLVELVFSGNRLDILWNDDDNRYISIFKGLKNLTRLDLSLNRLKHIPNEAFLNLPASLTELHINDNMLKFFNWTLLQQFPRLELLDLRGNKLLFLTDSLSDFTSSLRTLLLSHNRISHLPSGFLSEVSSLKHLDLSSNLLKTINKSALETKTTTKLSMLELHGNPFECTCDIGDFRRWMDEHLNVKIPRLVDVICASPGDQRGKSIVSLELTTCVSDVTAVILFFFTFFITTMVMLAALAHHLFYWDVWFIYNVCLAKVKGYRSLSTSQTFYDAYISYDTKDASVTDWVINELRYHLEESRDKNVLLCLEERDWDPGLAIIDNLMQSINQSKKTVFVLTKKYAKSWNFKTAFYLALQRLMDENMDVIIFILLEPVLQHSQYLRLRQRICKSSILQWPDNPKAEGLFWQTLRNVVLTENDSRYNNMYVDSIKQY

human TLR9 = human TLR9 (Homo sapiens (Human), UniProt Q9NR96); test: TLR9 inhibition reporter assay (HEK-Blue cells, SEAP reporter, ODN2006 stimulation); conditions: read-out: TLR9 IC50, HEK-Blue cells overexpressing human TLR9, ODN2006 5 nM;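 further: compounds tested over 0.05 nM to 50 µM, 22 h incubation, inhibition taken as SEAP signal drop from agonist plus DMSO wells toward a known inhibitor control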
Chain of human TLR9 (Q9NR96 26-1032): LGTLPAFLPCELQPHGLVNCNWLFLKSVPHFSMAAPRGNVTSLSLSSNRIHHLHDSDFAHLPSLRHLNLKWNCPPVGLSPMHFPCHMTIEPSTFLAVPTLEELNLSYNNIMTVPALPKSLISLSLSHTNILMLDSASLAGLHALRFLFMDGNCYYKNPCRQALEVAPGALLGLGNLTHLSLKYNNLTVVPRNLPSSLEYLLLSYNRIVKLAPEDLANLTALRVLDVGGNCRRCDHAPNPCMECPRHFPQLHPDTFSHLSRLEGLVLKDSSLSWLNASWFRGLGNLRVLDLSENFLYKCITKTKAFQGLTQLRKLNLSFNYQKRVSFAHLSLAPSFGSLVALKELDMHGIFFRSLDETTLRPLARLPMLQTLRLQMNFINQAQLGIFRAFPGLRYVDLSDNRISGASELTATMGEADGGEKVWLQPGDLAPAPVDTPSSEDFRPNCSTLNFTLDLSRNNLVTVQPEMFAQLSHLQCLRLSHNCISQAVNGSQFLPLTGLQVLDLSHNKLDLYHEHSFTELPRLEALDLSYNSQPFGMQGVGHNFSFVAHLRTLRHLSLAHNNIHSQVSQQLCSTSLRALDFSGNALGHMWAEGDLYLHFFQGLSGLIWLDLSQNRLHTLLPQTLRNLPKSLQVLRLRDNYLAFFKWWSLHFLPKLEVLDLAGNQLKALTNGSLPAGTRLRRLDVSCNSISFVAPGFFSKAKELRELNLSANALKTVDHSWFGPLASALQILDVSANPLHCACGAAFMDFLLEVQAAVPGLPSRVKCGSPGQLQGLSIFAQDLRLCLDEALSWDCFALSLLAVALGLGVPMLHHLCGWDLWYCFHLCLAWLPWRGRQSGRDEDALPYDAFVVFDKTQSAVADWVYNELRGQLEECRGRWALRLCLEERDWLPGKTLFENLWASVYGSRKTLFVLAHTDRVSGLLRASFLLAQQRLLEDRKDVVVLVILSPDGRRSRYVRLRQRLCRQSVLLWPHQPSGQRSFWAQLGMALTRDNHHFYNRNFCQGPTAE

human TLR7 = human TLR7 (Homo sapiens (Human), UniProt Q9NYK1); test: TLR7 inhibition reporter assay (HEK-Blue cells, SEAP reporter, gardiquimod stimulation); type: cell-based; conditions: HEK-Blue cells overexpressing human TLR7, gardiquimod 7.5 μM
Chain of human TLR7 (Q9NYK1 27-1049): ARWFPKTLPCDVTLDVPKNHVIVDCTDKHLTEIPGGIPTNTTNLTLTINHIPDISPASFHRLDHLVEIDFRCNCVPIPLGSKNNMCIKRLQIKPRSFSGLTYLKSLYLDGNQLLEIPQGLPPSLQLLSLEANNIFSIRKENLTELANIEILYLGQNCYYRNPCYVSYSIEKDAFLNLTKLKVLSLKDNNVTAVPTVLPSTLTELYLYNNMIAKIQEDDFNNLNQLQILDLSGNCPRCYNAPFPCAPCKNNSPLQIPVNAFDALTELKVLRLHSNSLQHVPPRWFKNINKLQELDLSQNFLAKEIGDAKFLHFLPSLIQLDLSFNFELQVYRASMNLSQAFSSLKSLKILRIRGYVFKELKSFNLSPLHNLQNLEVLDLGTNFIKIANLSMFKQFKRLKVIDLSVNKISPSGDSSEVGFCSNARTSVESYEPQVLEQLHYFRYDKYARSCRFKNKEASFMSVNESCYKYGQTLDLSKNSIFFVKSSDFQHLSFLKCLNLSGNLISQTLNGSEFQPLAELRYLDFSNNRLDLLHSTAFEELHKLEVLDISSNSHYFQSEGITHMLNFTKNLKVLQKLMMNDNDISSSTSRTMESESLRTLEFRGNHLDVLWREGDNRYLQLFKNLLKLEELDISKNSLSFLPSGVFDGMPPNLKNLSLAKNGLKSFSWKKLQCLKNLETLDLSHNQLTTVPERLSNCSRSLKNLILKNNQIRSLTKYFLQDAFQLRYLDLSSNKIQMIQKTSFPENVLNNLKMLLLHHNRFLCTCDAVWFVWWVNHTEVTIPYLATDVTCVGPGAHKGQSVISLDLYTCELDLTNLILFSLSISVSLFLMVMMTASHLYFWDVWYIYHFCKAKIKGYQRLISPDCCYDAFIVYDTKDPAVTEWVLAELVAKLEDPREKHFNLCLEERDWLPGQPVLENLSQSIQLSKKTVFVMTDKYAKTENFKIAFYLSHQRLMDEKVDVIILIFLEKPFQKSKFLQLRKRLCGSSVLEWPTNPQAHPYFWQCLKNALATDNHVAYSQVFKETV

| IC50 (human TLR8) | IC50 (human TLR9) | IC50 (human TLR7) | SMILES |
| --- | --- | --- | --- |
| 14 nM | 1390 nM | 5.4 nM | Cc1cc(-c2[nH]c3ccc(C4CCN(CC#N)CC4)cc3c2C(C)C)cc(C)n1 [Example 312, 2-(4-(2-(2,6-dimethylpyridin-4-yl)-3-isopropyl-1H-indol-5-yl)piperidin-1-yl)acetonitrile] |
| 6.3 nM | 8060 nM | 39.9 nM | Cc1cc(-c2[nH]c3ccc(C4CCN(CC(O)C(F)(F)F)CC4)cc3c2C(C)C)cc(C)n1 (stereo not drawn) [Example 313, 3-(4-(2-(2,6-dimethylpyridin-4-yl)-3-isopropyl-1H-indol-5-yl)piperidin-1-yl)-1,1,1-trifluoropropan-2-ol] |
| 3.2 nM | 147 nM | 1.4 nM | Cc1cc(-c2[nH]c3ccc(C4CCN(CCC(N)=O)CC4)cc3c2C(C)C)cc(C)n1 [Example 314, 3-(4-(2-(2,6-dimethylpyridin-4-yl)-3-isopropyl-1H-indol-5-yl)piperidin-1-yl)propanamide] |
| 9 nM | 1060 nM | 6.6 nM | Cc1cc(-c2[nH]c3ccc(C4CCN(CCC#N)CC4)cc3c2C(C)C)cc(C)n1 [Example 315, 3-(4-(2-(2,6-dimethylpyridin-4-yl)-3-isopropyl-1H-indol-5-yl)piperidin-1-yl)propanenitrile] |
| 2.3 nM | 780 nM | 11.9 nM | Cc1cc(-c2[nH]c3ccc(C4CCN(CC(O)C(F)(F)F)CC4)cc3c2C(C)C)cc(C)n1 (stereo not drawn) [Example 316, 3-(4-(2-(2,6-dimethylpyridin-4-yl)-3-isopropyl-1H-indol-5-yl)piperidin-1-yl)-1,1,1-trifluoropropan-2-ol] |
| 13.2 nM | 1120 nM | 13.7 nM | Cc1cc(-c2[nH]c3ccc(C4CCN(CC(O)C(F)(F)F)CC4)cc3c2C(C)C)cc(C)n1 (stereo not drawn) [Example 317, 3-(4-(2-(2,6-dimethylpyridin-4-yl)-3-isopropyl-1H-indol-5-yl)piperidin-1-yl)-1,1-trifluoropropan-2-ol] |
| 12.6 nM | 779 nM | 25.4 nM | Cc1cc(-c2[nH]c3ccc(C4CCN(Cc5ccccc5)CC4)cc3c2C(C)C)cc(C)n1 [Example 318, 5-(1-benzylpiperidin-4-yl)-2-(2,6-dimethylpyridin-4-yl)-3-isopropyl-1H-indole] |
| 4 nM | 355 nM | 2.7 nM | Cc1cc(-c2[nH]c3ccc(C4CCN(CC5(CO)COC5)CC4)cc3c2C(C)C)cc(C)n1 [Example 319, (3-((4-(2-(2,6-dimethylpyridin-4-yl)-3-isopropyl-1H-indol-5-yl)piperidin-1-yl)methyl)oxetan-3-yl)methanol] |
| 21.8 nM | 192 nM | 18.2 nM | Cc1cc(-c2[nH]c3ccc(C4CCN(CC5CN(Cc6ccccc6)CCO5)CC4)cc3c2C(C)C)cc(C)n1 (stereo not drawn) [Example 320, 4-benzyl-2-((4-(2-(2,6-dimethylpyridin-4-yl)-3-isopropyl-1H-indol-5-yl)piperidin-1-yl)methyl)morpholine] |
| 68.5 nM | > 50000 nM | 17.1 nM | Cc1cc(-c2[nH]c3ccc(C4CCN(CC(C)(C)C(=O)O)CC4)cc3c2C(C)C)cc(C)n1 [Example 321, 3-(4-(2-(2,6-dimethylpyridin-4-yl)-3-isopropyl-1H-indol-5-yl)piperidin-1-yl)-2,2-dimethylpropanoic acid] |
| 3.7 nM | 401 nM | 2.1 nM | CCN1CCC(c2ccc3[nH]c(-c4cc(C)nc(C)c4)c(C(C)C)c3c2)CC1 [Example 322, 2-(2,6-dimethylpyridin-4-yl)-5-(1-ethylpiperidin-4-yl)-3-isopropyl-1H-indole] |
| 3.9 nM | 359 nM | 1.4 nM | CCCN1CCC(c2ccc3[nH]c(-c4cc(C)nc(C)c4)c(C(C)C)c3c2)CC1 [Example 323, 2-(2,6-dimethylpyridin-4-yl)-3-isopropyl-5-(1-propylpiperidin-4-yl)-1H-indole] |
